Consider 9 compounds from PubChem BioAssay (NCI).

Several values for one entry are separate records, joined by “and”; a condition that tells them apart may be missing. Identical values can stand only once.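 Growth conditions: 96-well plates. Treatment: test compound, 48 hours, 5 concentrations. Analysis: linear interpolation between bracketing concentrations; unreached endpoints set to highest concentration. The concentration for 50% growth inhibition is given as GI50. TGI denotes the concentration required for complete inhibition of growth.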

Among the test systems are MALME-3M melanoma; MOLT-4 leukemia; OVCAR-8 ovarian; HOP-92 NSCLC; NCI-H23 lung; HCC-2998 colon; NCI-H522 lung; TK-10 renal; 786-0 renal; CAKI-1 renal.
Holding throughout (test): NCI anticancer screen, dose series, 48 h

Take `O=C1c2ccccc2-c2cccc3ccc(Cc4ccc5ccccc5c4)c1c23`: the TGI in the assay with MALME-3M melanoma, in the assay on MOLT-4 leukemia, in the assay on OVCAR-8 ovarian, in the assay on HOP-92 NSCLC, in the assay on NCI-H23 lung and with HCC-2998 colon was greater than 100 µM throughout. In addition, the TGI in the assay with NCI-H522 lung, in the assay on TK-10 renal and in the assay on 786-0 renal was greater than 100 µM in each case.

For the compound `CC[C@@H]1OC2(C)CC(S(=O)(=O)c3ccccc3O)CC1O2` (some centres not stated), the TGI in the assay on MALME-3M melanoma, in the assay on MOLT-4 leukemia, with CAKI-1 renal, with OVCAR-8 ovarian, with HOP-92 NSCLC and with NCI-H23 lung was greater than 100 µM in each case. Further, the TGI in the assay with HCC-2998 colon, in the assay with NCI-H522 lung and in the assay on 786-0 renal was greater than 100 µM in each case.

For `CC(=O)c1cccc(N2COC(C)(C)c3nc4ccccc4n3C2)c1`, the TGI in the assay on MALME-3M melanoma, with MOLT-4 leukemia, with OVCAR-8 ovarian, in the assay with HOP-92 NSCLC, in the assay on NCI-H23 lung and in the assay on HCC-2998 colon was greater than 100 µM each time. Besides, the TGI in the assay with NCI-H522 lung, in the assay with TK-10 renal and in the assay on 786-0 renal was greater than 100 µM throughout.

`Nc1c(C(=O)c2ccc(Cl)cc2)sc(Nc2ccccc2)c1-c1nc2ccccc2s1`: the GI50 is 0.751 µM in the assay with MALME-3M melanoma; 12.3 µM in the assay on MOLT-4 leukemia; 2.68 µM in the assay on OVCAR-8 ovarian; 0.777 µM in the assay on HOP-92 NSCLC; 1.64 µM in the assay with NCI-H23 lung; greater than 100 µM in the assay on HCC-2998 colon. Moreover, the GI50 in the assay on NCI-H522 lung is 3.13 µM; in the assay with TK-10 renal, 2.13 µM; in the assay on 786-0 renal it was 2.8 µM. For the same compound, the TGI with MALME-3M melanoma is greater than 100 µM; in the assay on MOLT-4 leukemia, greater than 89.6 µM; with OVCAR-8 ovarian, greater than 100 µM; with HOP-92 NSCLC it was 4.7 µM; in the assay on NCI-H23 lung it was 18.5 µM; in the assay with HCC-2998 colon, greater than 100 µM. The TGI in the assay on NCI-H522 lung was greater than 74.1 µM; in the assay with TK-10 renal, greater than 21.4 µM; with 786-0 renal, 8.18 µM.

`Cn1ccnc1CC(C)(O)c1ccccc1` (configuration not stated): the TGI in the assay with MALME-3M melanoma, in the assay on CAKI-1 renal, in the assay with OVCAR-8 ovarian, with HOP-92 NSCLC, in the assay with NCI-H23 lung and in the assay with HCC-2998 colon was greater than 100 µM throughout. The TGI in the assay with NCI-H522 lung, with TK-10 renal and with 786-0 renal was greater than 100 µM each time.

For `CC(=O)N[C@H]1C=C[C@@H]2/C=C(C)/C=C/[C@@H](C)[C@H]([C@H](C)[C@H](O)[C@@H](C)NC(C)=O)OC(=O)/C=C/C=C(C)\C=C\[C@]2(C)C1`, the TGI in the assay with MALME-3M melanoma is 4.65 µM and 24.7 µM; with MOLT-4 leukemia, greater than 45 µM; with OVCAR-8 ovarian it was 4.65 µM and > 45 µM; in the assay on NCI-H23 lung, 4.65 µM and > 45 µM; in the assay with HCC-2998 colon, greater than 45 µM; in the assay on NCI-H522 lung, 4.65 µM and 8.99 µM. The TGI in the assay with TK-10 renal was 44.6 µM; in the assay on 786-0 renal, 4.65 µM and > 45 µM. The GI50 was 11 µM in the assay on MOLT-4 leukemia; 0.00954 µM and 0.0045 µM in the assay with HOP-92 NSCLC; 5.04 µM with HCC-2998 colon; 0.0368 µM and 0.00931 µM in the assay with NCI-H522 lung; 0.00805 µM in the assay with TK-10 renal; 0.0242 µM and 0.0045 µM in the assay with 786-0 renal.

As to `CCOC(=O)C(Cc1c[nH]c2ccc(N)cc12)(NC(C)=O)C(=O)OCC`, the GI50 with MALME-3M melanoma, in the assay with OVCAR-8 ovarian, with HOP-92 NSCLC, with NCI-H23 lung, in the assay on HCC-2998 colon and in the assay with NCI-H522 lung was greater than 1000 µM each time. Also, the GI50 in the assay on TK-10 renal and in the assay with 786-0 renal was greater than 1000 µM each time. For the same compound, the TGI in the assay on MALME-3M melanoma, with OVCAR-8 ovarian, with HOP-92 NSCLC, in the assay on NCI-H23 lung, in the assay on HCC-2998 colon and with NCI-H522 lung was greater than 1000 µM in each case. The TGI in the assay on TK-10 renal and in the assay with 786-0 renal was greater than 1000 µM each time.

In the case of `CCCCc1c2c(nc3c1CCC/C3=C\c1ccccc1)C(=O)CCC2`, the TGI in the assay on MALME-3M melanoma is 52 µM; with MOLT-4 leukemia it was 43.4 µM; with OVCAR-8 ovarian it was greater than 100 µM; in the assay on HOP-92 NSCLC it was 58.7 µM; with NCI-H23 lung, 58.7 µM; in the assay with HCC-2998 colon, 35.2 µM. The results for the TGI in the assay with NCI-H522 lung, with TK-10 renal and in the assay with 786-0 renal were 29.5 µM, 72.4 µM and 60.9 µM, respectively.

As to `CC(=O)Nc1ccc(C(=O)NN2C(=O)C(Cl)C2c2ccc(Cl)cc2)cc1` (configuration not stated), the TGI in the assay with MALME-3M melanoma was greater than 65.8 µM; in the assay with MOLT-4 leukemia, greater than 100 µM; in the assay with OVCAR-8 ovarian, greater than 100 µM; with HOP-92 NSCLC it was 82.1 µM; in the assay with NCI-H23 lung it was greater than 100 µM; with HCC-2998 colon, greater than 100 µM. The results for the TGI in the assay with NCI-H522 lung, in the assay on TK-10 renal and in the assay on 786-0 renal were greater than 100 µM, greater than 100 µM and 40.3 µM, respectively.
